Columns and labels:
[1] = test system: Canine Cardiac Atrioventricular Node Function; experiment: Test of the Suppression of Canine Cardiac Atrioventricular Node Function; type: in vivo; conditions: anesthetized male beagle dogs, 0.1 mg/kg intravenously, 1 hour after administration (compound A), 30 minutes (Verapamil), vs control group; for change in AH intervals in the His bundle electrocardiograms during high-frequent stimulation by pacing: pacing the right atrium at intervals of 400 msec and 300 msec
Description: Male beagle dogs were employed in this test. Under halothane anesthesia, an electrode catheter was inserted from the left femoral artery and the front end thereof was placed in the non-coronary cusp of His bundle to thereby record the His bundle electrocardiogram. A pacing catheter was inserted via a sheath introducer placed in the right femoral vein and the front end thereof was fixed to the inner wall of the right atrium. Electrodes for recording body surface electrocardiogram were attached to the four limbs and thus the second-lead electrocardiogram was recorded. A drug was administered via the sheath introducer placed in the left femoral vein.
Verapamil, which was used as a comparative compound, was intravenously administered in a dose of 0.1 mg/kg. A group to which a vehicle was administered was referred to as the control group.
After the stabilization period following the surgical operation, AH intervals in the His bundle electrocardiograms were measured in the sinus rhythm and during pacing the right atrium at intervals of 400 msec and 300 msec. […] In the case of the comparative drug Verapamil, the AH intervals in the His bundle electrocardiogram as described above were measured before the administration and 30 minutes after the administration. The effect of a compound was expressed in the change in the AH intervals in the individual His bundle electrocardiograms in the sinus rhythm and during pacing the right atrium at intervals of 400 msec and 300 msec from the value before the administration of the drug and the data were compared with the data of the control group (Student's t-test) at a significant level of 5%. The term “AH interval in His bundle electrocardiogram” means the period of time wherein an electrical excitation generated at the atrium passes the atrioventricular node and arrives at His bundle.

[2] = test system: Anesthetized Swine Ventricular Rate; experiment: Test of Measurement of Anesthetized Swine Ventricular Rate; type: in vivo, pigs (Landrace/White F1)
Experimental: Male pigs (Landrace/White F1) were employed in this test. Under pentbarbital anesthesia, a thoracotomy was performed at the fourth right intercostal space and an electrode for electrical stimulation was attached to the right atrial surface thus exposed. Electrodes for recording body surface electrocardiogram were attached to the four limbs and thus the second-lead electrocardiogram was recorded. A catheter for drug administration was placed in the right femoral vein. Compound A was intravenously administered in a dose of 0.3 mg/kg. Atenolol, which was a β-blocker used as a comparative compound, was intravenously administered in a dose of 1 mg/kg. A group to which a vehicle was administered was referred to as the control group. A 50 Hz burst stimulation was applied to the right atrium via the electrode for electrical stimulation and the ventricular rate per minute was measured as R-waves in the body surface electrocardiogram. Thirty minutes after the administration of compound A or the comparative drug, a 50 Hz burst stimulation was applied again to the right atrium and then the R-waves per minute in the body surface electrocardiogram were measured.

SMILES | change in AH intervals in the His bundle electrocardiograms during high-frequent stimulation by pacing [1] | change in AH interval in the His bundle electrocardiogram in the sinus rhythm [1] | change in ventricular rate (R waves per minute) during the 50 Hz burst stimulation ([2]; anesthetized male pigs, 0.3 mg/kg intravenously, 30 minutes after administration, 50 Hz burst stimulation of right atrium, vs control group) | efficacy relative to Atenolol in controlling the ventricular rate ([2]; anesthetized pigs, compound A 0.3 mg/kg vs Atenolol 1 mg/kg intravenously)
COc1cc2c(cc1OC)CC(=O)N(CCCN(C)C[C@H]1Cc3cc(OC)c(OC)cc31)CC2 [Ivabradine] | no significant difference at a significant level of 5% was observed | do not suppress the atrioventricular node function in the sinus rhythm |  | 
COc1ccc(CCN(C)CCCC(C#N)(c2ccc(OC)c(OC)c2)C(C)C)cc1OC (centres unmarked) [Verapamil] | significantly prolonged | significantly prolonged |  | 
COc1cc2c(cc1OC)CN(C(=O)[C@@H]1CCCN(CCNC(=O)c3ccc(F)cc3)C1)CC2 [compound A, (−)-N-{2-[(R)-3-(6,7-dimethoxy-1,2,3,4-tetrahydroisoquinoline-2-carbonyl)piperidino]ethyl}-4-fluorobenzamide monophosphate] | prolonged at a significant level of 1% | no effect | significantly decreases | stronger by thrice or more

Source: patent US20090247572A1, “AGENT FOR TREATING ATRIAL FIBRILLATION” (priority 2005, published 2009)
